The source made the active and inactive calls.
What was measured:
[1] = molecular target: Glyceraldehyde-3-phosphate dehydrogenase (Homo sapiens, UniProt P04406)
[2] = molecular target: T1, Alkaline phosphatase, tissue-nonspecific isozyme (Homo sapiens, UniProt P05186); assay: potency against alkaline phosphatase TNAP – biochemical, luminescent, dose response, SAR follow-up (AID 1056)
T1 sequence (P05186 whole entry): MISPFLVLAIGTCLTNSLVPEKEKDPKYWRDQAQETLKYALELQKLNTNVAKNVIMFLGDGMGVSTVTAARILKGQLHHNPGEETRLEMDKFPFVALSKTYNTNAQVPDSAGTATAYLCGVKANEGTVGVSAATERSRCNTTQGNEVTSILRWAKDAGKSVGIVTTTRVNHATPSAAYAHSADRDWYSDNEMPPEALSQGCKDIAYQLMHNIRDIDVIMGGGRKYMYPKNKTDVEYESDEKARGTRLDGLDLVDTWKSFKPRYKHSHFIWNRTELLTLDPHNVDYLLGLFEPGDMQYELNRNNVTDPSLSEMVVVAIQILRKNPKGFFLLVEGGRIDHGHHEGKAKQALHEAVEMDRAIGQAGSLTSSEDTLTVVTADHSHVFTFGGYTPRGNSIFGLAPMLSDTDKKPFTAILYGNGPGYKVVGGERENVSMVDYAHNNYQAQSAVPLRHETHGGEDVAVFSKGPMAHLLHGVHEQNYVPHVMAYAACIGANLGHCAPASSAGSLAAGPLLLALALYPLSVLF

Estrogen receptor beta [3] = molecular target: T2, Estrogen receptor beta (Homo sapiens, UniProt Q92731);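 note: recombinant ER-beta bound to coactivator SRC1 peptide in presence of estradiol agonist; inhibitors block coactivator peptide binding and lower the FRET signal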
T2 sequence (Q92731 whole entry): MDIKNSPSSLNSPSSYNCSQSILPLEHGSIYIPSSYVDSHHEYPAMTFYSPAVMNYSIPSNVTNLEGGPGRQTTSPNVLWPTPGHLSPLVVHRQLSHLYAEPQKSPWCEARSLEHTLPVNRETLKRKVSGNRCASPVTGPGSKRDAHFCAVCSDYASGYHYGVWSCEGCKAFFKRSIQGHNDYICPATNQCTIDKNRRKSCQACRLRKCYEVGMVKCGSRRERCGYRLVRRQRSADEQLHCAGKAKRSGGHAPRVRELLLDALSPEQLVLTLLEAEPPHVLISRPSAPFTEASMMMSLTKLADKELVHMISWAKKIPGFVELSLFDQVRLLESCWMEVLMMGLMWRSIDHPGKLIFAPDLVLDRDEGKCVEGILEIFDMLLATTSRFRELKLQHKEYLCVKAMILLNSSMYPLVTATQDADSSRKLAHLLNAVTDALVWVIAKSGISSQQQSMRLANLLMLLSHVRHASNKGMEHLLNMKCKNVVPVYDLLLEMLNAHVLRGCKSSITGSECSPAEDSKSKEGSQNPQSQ

Estrogen receptor beta [4] = molecular target: T2, Estrogen receptor beta; assay: blockers of SRC-3 recruitment to ERβ – biochemical, ELISA, streptavidin-HRP readout, orthogonal assay, confirmation (AID 1060)
[5] = HEK-293T viability loss after treatment – luminescence, T-cell screen hits, cytotoxicity control for TCR NF-kB inhibitor project, dose response (AID 489026); type: functional, cell-based;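 note: cells exposed to compound about 14 hours before the viability readout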
[6] = CellTiter-Glo luminescence survival assay, SW480 colon tumor line, concentration-response curve, half-maximal inhibitory concentration (AID 1117338); type: functional
[7] = RKO cell viability reduction, dose response, CellTiter-Glo luminescence (AID 1117322); type: functional
[8] = cytotoxicity toward HCT116 cells – cell-based, CellTiter-Glo luminescence, IC50, dose response (AID 1117332); type: functional; details: HCT-116
[9] = SNU-C1 cell viability reduction, dose response, CellTiter-Glo luminescence (AID 1117323); type: functional, cell-based
[10] = cytotoxicity toward Colo320 cells – cell-based, CellTiter-Glo luminescence, IC50, dose response (AID 1117334); type: functional; details: COLO 320
[11] = cytotoxicity toward HT-29 cells – cell-based, CellTiter-Glo luminescence, IC50, dose response (AID 1117330); type: functional
[12] = Reduced DLD-1 viability, concentration-response, CellTiter-Glo luminescence (AID 1117352); type: functional
[13] = HCT116 cell viability decrease, GSK3B pretreatment – CellTiter-Glo, IC50, dose response (AID 1117339); type: functional; details: HCT-116
[14] = A549 cell cytotoxicity, dose response, cytotoxicity control, plate reader, cherry-pick, antagonist series (AID 743412); type: functional, cell-based
[15] = blockade of melanocortin 4 receptor signaling – cell-based, plate reader, cherry pick, counter-screen for LGR2 antagonist project, dose response (AID 743444); type: functional;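 note: transfected HEK 293 cells stimulated with alpha-MSH peptide; potency of inhibitors of the alpha-MSH evoked signal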
[16] = system: Streptococcus sp. 'group A'; assay: Streptococcus pyogenes SK(-)GAS viability under kanamycin – luminescence, BacTiterGlo, confirmation, counter-screen for streptokinase expression inhibitor project, dose response (AID 1900); type: functional, organism-based
BJ [17] = assay: BJ-TERT fibroblast viability loss – cell-based, RAS-independent, luminescence, dose response (AID 1933); type: functional; details: Homo sapiens
cells [18] = type: functional, cell-based
Streptokinase A = molecular target: T3, Streptokinase A (Streptococcus pyogenes serotype M1, UniProt P10520); assay: viability-normalized secreted streptokinase activity reduction – plasminogen activation absorbance, OD405, dose response (AID 1914); type: functional, Streptococcus pyogenes M1 GAS;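 note: secreted streptokinase activity via plasminogen activation per viability signal from cell pellet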
T3 sequence (P10520 whole entry): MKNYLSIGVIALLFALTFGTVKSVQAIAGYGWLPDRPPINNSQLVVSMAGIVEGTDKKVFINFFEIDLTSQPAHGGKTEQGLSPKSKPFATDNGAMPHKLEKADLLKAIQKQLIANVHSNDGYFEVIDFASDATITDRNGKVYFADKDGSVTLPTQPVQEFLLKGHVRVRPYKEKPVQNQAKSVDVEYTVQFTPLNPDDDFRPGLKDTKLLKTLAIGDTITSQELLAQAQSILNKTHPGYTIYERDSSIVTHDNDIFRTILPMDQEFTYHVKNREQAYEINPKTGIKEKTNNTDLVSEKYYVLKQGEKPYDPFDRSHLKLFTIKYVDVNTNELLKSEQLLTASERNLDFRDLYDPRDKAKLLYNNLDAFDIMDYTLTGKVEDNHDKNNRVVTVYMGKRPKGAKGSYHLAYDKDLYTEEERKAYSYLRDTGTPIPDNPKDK

BJ [19] = assay: cells; type: functional, cell-based; details: Homo sapiens
cells [20] = type: functional, cell-based; remark: listed apart in the source
BJ [21] = assay: BJ-TERT-LT-ST fibroblast viability loss – cell-based, RAS-independent, luminescence, dose response (AID 1935); type: functional; details: Homo sapiens;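 note: BJ fibroblasts immortalized with TERT plus LT and ST oncogenes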
[22] = DRD fibroblast viability loss – cell-based, non-viral oncogenic, luminescence, dose response (AID 1934); type: functional; details: Homo sapiens
Streptococcus = assay: GAS UMAA2166 growth inhibition – luminescence, BacTiterGlo, counter-screen for streptokinase expression inhibitor project, dose response (AID 1915); type: functional, organism-based;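 note: potency for reduction of bacterial viability or growth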
HEK293 = assay: EBV LMP1 TES2 canonical NF-kB signalling blockers – cell-based, HEK293, luciferase, cherry-pick, dose response (AID 588343); type: functional; details: Homo sapiens
INS1 = assay: INS-1E survival protection against cytokine death – cell-based, luminescence, retest, dose response (AID 449756); type: functional; details: Rattus norvegicus;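 note: cell death triggered by IL-1 beta plus TNF-alpha plus IFN-gamma mixture; protective hits raise ATP signal compared with cytokine alone wells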

Chain of Glyceraldehyde-3-phosphate dehydrogenase (P04406 whole entry): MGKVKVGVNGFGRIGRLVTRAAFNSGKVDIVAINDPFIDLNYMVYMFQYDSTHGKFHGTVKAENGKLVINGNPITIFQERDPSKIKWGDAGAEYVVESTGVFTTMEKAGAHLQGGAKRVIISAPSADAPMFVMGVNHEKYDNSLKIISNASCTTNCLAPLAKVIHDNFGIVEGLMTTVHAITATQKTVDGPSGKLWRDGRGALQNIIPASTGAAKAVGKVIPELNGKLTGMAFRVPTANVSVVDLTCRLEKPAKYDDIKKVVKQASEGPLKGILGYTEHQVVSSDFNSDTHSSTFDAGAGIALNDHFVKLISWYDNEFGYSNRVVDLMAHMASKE

Row | Compound | IC50 [6] | IC50 [7] | IC50 [8] | IC50 [9] | IC50 [10] | IC50 [11] | IC50 [12] | IC50 [13] | also measured
1 | COc1ccc(S(=O)(=O)Nc2cnc3ccccc3c2)c(OC)c1 |  |  |  |  |  |  |  |  | IC50 [1]: > 100 µM (not active); IC50 [2]: 19.5 µM (active)
2 | c1ccc(CN2CCN=C2c2cccnc2)cc1 |  |  |  |  |  |  |  |  | IC50 [1]: > 100 µM (not active); IC50 [2]: > 100 µM (inactive)
3 | Cc1cc(C)c(C(=O)COc2cccnc2[N+](=O)[O-])cc1C |  |  |  |  |  |  |  |  | IC50 (Estrogen receptor beta [3]): 7.21 µM (active); IC50 (Estrogen receptor beta [4]): > 50 µM (not active)
4 | CCCc1cc(C(=O)N/N=C/c2ccc(CC)s2)c2ccccc2n1 |  |  |  |  |  |  |  |  | IC50 [5]: > 80 µM (inactive)
5 | COC(=O)C1=C(C)NC(C)=C(C(=O)O[C@@H]2CCCN(Cc3ccccc3)C2)[C@@H]1c1cccc([N+](=O)[O-])c1 | > 20 µM (inactive) | 8.05 µM (inactive) | 4.28 µM (active) | 5.76 µM (inactive) | 19.5 µM (inactive) | 5.27 µM (inactive) | 7.96 µM (inactive) | 5.31 µM (inactive) | 
6 | O=C(Cc1ccncc1)NCC[C@H]1CC[C@H](NC(=O)C2CCCC2)[C@H](CO)O1 |  |  |  |  |  |  |  |  | AC50 [14]: > 52 µM (inactive); AC50 [15]: 42.1 µM (active)
7 | CCOc1cccc(/C=N/Nc2ccc(S(=O)(=O)N(CC)CC)cn2)c1O |  |  |  |  |  |  |  |  | EC50 [16]: 6.87 µM (active); EC50 (BJ [17]): 2.86 µM (active); EC50 (cells [18]): > 350 µM (not active); EC50 (Streptokinase A): > 150 µM (not active); EC50 (BJ [19]): 4.12 µM (active); EC50 (cells [20]): 49.6 µM (active); EC50 (BJ [21]): 7.7 µM (active); EC50 [22]: 3.94 µM (active); EC50 (Streptococcus): 9.29 µM (active); IC50 [5]: > 80 µM (inactive); AC50 (HEK293): 4.85 µM (active); AC50 (INS1): 1.12 µM (active)
8 | CC1(C)[C@H](C=C(Cl)Cl)[C@@H]1C(=O)OCc1c(F)c(F)cc(F)c1F | > 20 µM (inactive) | > 20 µM (inactive) | > 20 µM (inactive) | > 20 µM (inactive) | > 20 µM (inactive) | > 20 µM (inactive) | > 20 µM (inactive) | > 20 µM (inactive) | 
9 | CCCCC[C@@H](O)CC[C@H]1[C@@H]2Cc3cccc(OCC(=O)O)c3C[C@@H]2C[C@@H]1O | > 20 µM (inactive) | > 20 µM (inactive) | > 20 µM (inactive) | > 20 µM (inactive) | > 20 µM (inactive) | > 20 µM (inactive) | > 20 µM (inactive) | > 20 µM (inactive) | 
10 | CCCCN1CCCC1C(=O)Nc1c(C)cc(C)cc1C (stereo not drawn) [BUMECAINE] | > 20 µM (inactive) | > 20 µM (inactive) | > 20 µM (inactive) | > 20 µM (inactive) | > 20 µM (inactive) | > 20 µM (inactive) | > 20 µM (inactive) | > 20 µM (inactive) | 
